What was measured:
A549 = test: Cytotoxicity against human A549 cells assessed as inhibition of cell viability after 48 hrs by MTT assay; format: functional, cell-based; conditions: A549, 48 h
Danio rerio [1] = species: Danio rerio; test: Antiangiogenic activity against wild AB-type transgenic zebrafish embryo expressing green fluorescent protein-labeled VEGFR2 assessed as inhibition of growth of intersegmental vessels treated at 24 hrs post fertilization measured after 48 hrs by alkaline phosphatase staining; format: functional, organism-based
Danio rerio [2] = species: Danio rerio; test: Antiangiogenic activity against wild AB-type transgenic zebrafish embryo expressing green fluorescent protein-labeled VEGFR2 assessed as inhibition of growth of intersegmental vessels at 33.6 uM treated at 24 hrs post fertilization measured after 48 hrs by alkaline phosphatase staining; format: functional

Compound	IC50 (A549)	IC50 (Danio rerio [1])	growth inhibition (GI) (Danio rerio [1])	growth inhibition (GI) (Danio rerio [2])
C=C1CC[C@H]2[C@@H]([C@@H]3[C@@H]1C1=C(C[C@H](C)C1=O)C(=O)[C@H]3C)C2(C)C [SIKKIMENOID A]	> 10 µM	–	–	–
C=C1CC[C@H]2[C@@H]([C@@H]3[C@@H]1C1=C(C[C@@H](C)C1=O)C(=O)[C@H]3C)C2(C)C [SIKKIMENOID B]	> 10 µM	43 µM	Dose-dependent effect	41.1%
C=C1CC[C@H]2[C@@H]([C@@H]3[C@@H]1C1=C(C[C@](C)(O)C1=O)C(=O)[C@H]3C)C2(C)C [SIKKIMENOID C]	> 10 µM	–	–	–
C=C1CC[C@H]2[C@@H]([C@@H]3[C@@H]1C1=C(C[C@@](C)(O)C1=O)C(=O)[C@H]3C)C2(C)C [SIKKIMENOID D]	> 10 µM	–	–	–
Clc1ccc(Nc2nnc(Cc3ccncc3)c3ccccc23)cc1 [VATALANIB]	–	0.23 µM	–	–

Source: ChEMBL document CHEMBL2331434, “Jatropholane-type diterpenes from Euphorbia sikkimensis” (J Nat Prod, 2013)
